The values below come from ChEMBL document CHEMBL1138111, “Reduction of CYP450 inhibition in the 4-[(1H-imidazol-4-yl)methyl]piperidine series of histamine H3 receptor antagonists” (Bioorg Med Chem Lett, 2006).

For one data set, the target named is Cytochrome P450 3A4 (Homo sapiens, UniProt P08684). The experiment in a line: Inhibitory activity against CYP3A4. Format: ADME.
Data set [1] has as its target T1, Cytochrome P450 2D6 (Homo sapiens, UniProt P10635). The experiment in a line: Inhibition of CYP2D6 by human liver microsome assay. In kind it is ADME, microsomes. Background: Microsomes from liver hold many membrane-bound enzymes, among them those of drug oxidation.
Data set [2] concerns the target T1, Cytochrome P450 2D6. The experiment in a line: Inhibition of CYP2D6 by supersome assay. Format: ADME.
Data set [3] has as its target T2, Histamine H3 receptor (Cavia porcellus, UniProt Q9JI35). The experiment in a line: Antagonistic activity against histamine H3 receptor in guinea pig ileum. Format: functional, tissue-based. As to conditions: read-out: pA2 (converted).
Data set [4] addresses T2, Histamine H3 receptor. The experiment in a line: Displacement of [3H]N-alpha-methylhistamine from guinea pig histamine H3 receptor. A general note: Displacement assays read how much labelled ligand stays bound in the presence of the test substance.
The nature of data set [5]: Plasma AUC (0-6 h) in rat at 10 mg/kg, po. Format: ADME, organism-based. More on the design: time < 6 hr, dose 10 mg/kg, route oral.
The nature of data set [6]: Plasma AUC (0-24 h) in monkey at 3 mg/kg, po. Format: ADME, organism-based, Macaca mulatta. More on the design: time < 24 hr, dose 3 mg/kg, route oral. The note with it: rhesus monkey.

Each structure is given as a SMILES string. Some results are limits rather than exact numbers.

T2 sequence (Q9JI35 whole entry): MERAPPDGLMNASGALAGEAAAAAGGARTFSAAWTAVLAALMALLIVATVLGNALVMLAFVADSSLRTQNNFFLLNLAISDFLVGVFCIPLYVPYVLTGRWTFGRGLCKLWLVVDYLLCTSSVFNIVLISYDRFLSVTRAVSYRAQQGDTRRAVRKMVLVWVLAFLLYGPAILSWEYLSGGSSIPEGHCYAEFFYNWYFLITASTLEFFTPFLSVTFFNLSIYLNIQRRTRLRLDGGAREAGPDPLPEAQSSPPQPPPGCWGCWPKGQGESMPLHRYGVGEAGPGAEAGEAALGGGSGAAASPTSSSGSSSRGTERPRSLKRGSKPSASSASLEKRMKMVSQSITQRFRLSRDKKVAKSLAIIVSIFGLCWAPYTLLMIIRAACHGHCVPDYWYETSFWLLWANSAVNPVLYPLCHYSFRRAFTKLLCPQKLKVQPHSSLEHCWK
T1 sequence (P10635 whole entry): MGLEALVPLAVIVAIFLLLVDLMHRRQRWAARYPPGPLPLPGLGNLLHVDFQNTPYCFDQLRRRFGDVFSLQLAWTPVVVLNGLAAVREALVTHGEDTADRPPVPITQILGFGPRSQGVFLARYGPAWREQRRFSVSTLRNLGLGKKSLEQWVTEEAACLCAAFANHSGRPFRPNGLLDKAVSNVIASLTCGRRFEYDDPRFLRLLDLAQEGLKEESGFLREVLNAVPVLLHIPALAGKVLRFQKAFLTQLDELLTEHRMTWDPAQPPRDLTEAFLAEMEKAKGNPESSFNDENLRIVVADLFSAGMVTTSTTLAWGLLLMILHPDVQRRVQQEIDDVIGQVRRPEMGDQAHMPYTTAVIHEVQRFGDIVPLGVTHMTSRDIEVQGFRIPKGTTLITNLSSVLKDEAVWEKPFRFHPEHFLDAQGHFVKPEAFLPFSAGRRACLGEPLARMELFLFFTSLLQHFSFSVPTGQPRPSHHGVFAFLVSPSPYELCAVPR
Chain of Cytochrome P450 3A4 (P08684 whole entry): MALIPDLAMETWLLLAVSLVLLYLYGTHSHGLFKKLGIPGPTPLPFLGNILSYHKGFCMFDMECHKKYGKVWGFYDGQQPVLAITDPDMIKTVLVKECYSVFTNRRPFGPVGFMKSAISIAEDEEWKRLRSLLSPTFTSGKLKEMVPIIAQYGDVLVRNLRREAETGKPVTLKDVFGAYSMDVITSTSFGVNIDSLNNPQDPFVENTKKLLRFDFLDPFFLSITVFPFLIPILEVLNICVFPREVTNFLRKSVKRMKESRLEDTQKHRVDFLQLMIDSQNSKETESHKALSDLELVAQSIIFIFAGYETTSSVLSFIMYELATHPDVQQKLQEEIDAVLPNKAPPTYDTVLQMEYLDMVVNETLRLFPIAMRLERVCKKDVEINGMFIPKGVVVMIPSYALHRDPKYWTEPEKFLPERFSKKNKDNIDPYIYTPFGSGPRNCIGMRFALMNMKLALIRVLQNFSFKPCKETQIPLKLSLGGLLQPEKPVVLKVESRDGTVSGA

For the compound `c1ccc(OCCCN2CCC(Cc3c[nH]cn3)CC2)cc1`, the results for the IC50 against Cytochrome P450 3A4 and on Cytochrome P450 2D6 [1] were greater than 20000 nM and 30 nM, respectively.
Take `NC(=O)C1CCN(Cc2ccc(OCCCN3CCC(Cc4c[nH]cn4)CC3)cc2)CC1`: the IC50 (commonly the concentration that gives 50% inhibition) against Cytochrome P450 2D6 [2] was greater than 30000 nM. Also, the Kb at Histamine H3 receptor [3] is 25.1 nM. Besides, at Histamine H3 receptor [4], the affinity, expressed as Ki, was 16 nM.
Turning to `FC1(F)CCN(Cc2ccc(OCCCN3CCC(Cc4cnc[nH]4)CC3)cc2)CC1`, on Histamine H3 receptor [4], the Ki (usually a measure of affinity in units of concentration, obtained from inhibition or displacement) is 4 nM. The same compound returned an IC50 against Cytochrome P450 2D6 [1] of 6000 nM.
In turn, `O=C(c1ccc(OCCCN2CCC(Cc3c[nH]cn3)CC2)cc1)N1CCCCC1` yielded an IC50 on Cytochrome P450 2D6 [2] of 2000 nM. Besides, at Histamine H3 receptor [3], the Kb was 20 nM. This compound also yielded a Ki on Histamine H3 receptor [4] of 26 nM.
Take `CN(C)CCCOc1ccc(CN2CCC(Cc3cnc[nH]3)CC2)cc1`: the Kb on Histamine H3 receptor [3] was 79.4 nM. The same compound gave a Ki on Histamine H3 receptor [4] of 17 nM. Besides, at Cytochrome P450 2D6 [1], the IC50 was greater than 30000 nM.
With `O=C(CCOc1ccc(CN2CCCCC2)cc1)N1CCC(Cc2cnc[nH]2)CC1`, the AUC(0-t) (usually exposure summed from dosing to a finite time, without extrapolation to infinity) at 6 h in data set [5] worked out at 1.83 µM·h. The inhibition constant (Ki) on Histamine H3 receptor [4] is 315 nM. This compound also gave an IC50 on Cytochrome P450 2D6 [1] of 1000 nM.
In the case of `Nc1ncc(-c2ccc(OCCCN3CCC(Cc4c[nH]cn4)CC3)cc2)cn1`, on Histamine H3 receptor [3], the Kb was 20 nM. The compound also returned a Ki on Histamine H3 receptor [4] of 12 nM. On Cytochrome P450 2D6 [1], the IC50 is 12000 nM.
Compound `c1ncc(CC2CCN(CCOc3ccc(CN4CCCCC4)cc3)CC2)[nH]1` gave a Ki on Histamine H3 receptor [4] of 5 nM. For the same compound, half-maximal inhibition against Cytochrome P450 2D6 [1] (IC50) required 3000 nM.
Take `c1nc(CC2CCN(CCCOc3ccc(CN4CCCCC4)nc3)CC2)c[nH]1`: the Kb on Histamine H3 receptor [3] is 7.94 nM. Besides, at Histamine H3 receptor [4], affinity was put at a Ki of 10 nM. For the same compound, half-maximal inhibition against Cytochrome P450 2D6 [1] (IC50) was put at 3000 nM.
In the case of `c1nc(CC2CCN(CCCCOc3ccc(CN4CCCCC4)cc3)CC2)c[nH]1`, at Histamine H3 receptor [3], the Kb was 15.8 nM. This compound had a Ki on Histamine H3 receptor [4] of 16 nM. The compound also registered an IC50 against Cytochrome P450 2D6 [1] greater than 20000 nM.
As for `c1cnc2ccc(OCCCN3CCC(Cc4cnc[nH]4)CC3)cc2c1`, the Ki on Histamine H3 receptor [4] is 52 nM. The compound further displayed a half-maximal inhibitory concentration (IC50) at Cytochrome P450 2D6 [1] of 2000 nM.
For `c1ncc(CC2CCN(CCCOc3ccc(OC4CCCCC4)cc3)CC2)[nH]1`, at Histamine H3 receptor [4], the affinity corresponds to a Ki of 6 nM. Besides, the IC50 against Cytochrome P450 2D6 [1] came to 300 nM.
In the same order, the values of `c1ncc(-c2ccc(OCCCN3CCC(Cc4cnc[nH]4)CC3)cc2)cn1` are 9 nM and 4000 nM.
In the same order, the values of `c1cnc(-c2ccc(OCCCN3CCC(Cc4cnc[nH]4)CC3)cc2)nc1` are 45 nM and 6000 nM.
`O=C1CCCCN1Cc1ccc(OCCCN2CCC(Cc3cnc[nH]3)CC2)cc1` registered a concentration for half-maximal inhibition (IC50) against Cytochrome P450 2D6 [2] of 5000 nM. In addition, the affinity at Histamine H3 receptor [4], expressed as Ki, was 34 nM.
With `O=C(c1ccc(OCCCN2CCC(Cc3cnc[nH]3)CC2)nc1)N1CCCCC1`, the Kb on Histamine H3 receptor [3] is 20 nM. For the same compound, the affinity on Histamine H3 receptor [4], expressed as Ki, was 24 nM. The IC50 against Cytochrome P450 2D6 [1] is 2000 nM.
Regarding `c1ncc(CC2CCN(CCCOc3ccc(NC4CCCCC4)cc3)CC2)[nH]1`, the Ki at Histamine H3 receptor [4] came to 15 nM. At Cytochrome P450 2D6 [1], this compound returned an IC50 of 900 nM.
The compound `c1ncc(CC2CCN(CCCOc3ccc(CCN4CCCCC4)cc3)CC2)[nH]1` yielded an IC50 against Cytochrome P450 2D6 [2] of 1000 nM. For the same compound, on Histamine H3 receptor [3], the Kb was 3.16 nM. For the same compound, the affinity at Histamine H3 receptor [4], expressed as Ki, was 3 nM.
On Cytochrome P450 2D6 [1], `O=C(CCOc1ccc(C(=O)N2CCNCC2)cc1)N1CCC(Cc2c[nH]cn2)CC1` returned an IC50 of 30000 nM.
As to `O=C(Nc1nccs1)N1CCC(Cc2cnc[nH]2)CC1`, the AUC(0-t) at 6 h in data set [5] was found to be 1.03 µM·h. The Kb at Histamine H3 receptor [3] was 25.1 nM. This compound registered a Ki on Histamine H3 receptor [4] of 4 nM. This compound also returned an IC50 against Cytochrome P450 2D6 [1] of 2000 nM.
Take `O=C(Nc1ncccn1)N1CCC(Cc2c[nH]cn2)CC1`: at Histamine H3 receptor [3], the Kb was 25.1 nM. This compound also returned a Ki on Histamine H3 receptor [4] of 8 nM. Besides, on Cytochrome P450 2D6 [1], the IC50 amounted to 6000 nM.
Regarding `CCN(CC)Cc1ccc(OCCCN2CCC(Cc3c[nH]cn3)CC2)cc1`, the Kb on Histamine H3 receptor [3] is 1.58 nM. For the same compound, the Ki on Histamine H3 receptor [4] amounted to 4 nM. This compound also showed a half-inhibitory concentration (IC50) against Cytochrome P450 2D6 [1] of 6000 nM.
In the case of `c1nc(CC2CCN(CCCOc3ccc(N4CCCCC4)cc3)CC2)c[nH]1`, affinity at Histamine H3 receptor [4] was put at a Ki of 15 nM. At Cytochrome P450 2D6 [1], this compound showed an IC50 of 1000 nM.
For the compound `c1cc(OCCCN2CCC(Cc3cnc[nH]3)CC2)cc(OC2CCCCC2)c1`, the Ki on Histamine H3 receptor [4] came out at 3 nM. On Cytochrome P450 2D6 [1], this compound returned an IC50 of 2000 nM.
Take `c1cc(CN2CCCCC2)cc(OCCCN2CCC(Cc3cnc[nH]3)CC2)c1`: the Kb on Histamine H3 receptor [3] is 3.98 nM. Also, the affinity at Histamine H3 receptor [4] corresponds to a Ki of 1 nM. This compound also registered an IC50 at Cytochrome P450 2D6 [1] of 3000 nM.
Take `O=C(CCc1ccc(CN2CCCCC2)cc1)N1CCC(Cc2c[nH]cn2)CC1`: affinity at Histamine H3 receptor [4] was put at a Ki of 45 nM. On Cytochrome P450 2D6 [1], this compound had an IC50 of 3000 nM.
With `CN(C)CCCOc1ccc(CN2CCCCC2)cc1`, the IC50 against Cytochrome P450 3A4 and against Cytochrome P450 2D6 [1] was greater than 30000 nM in each case. For the same compound, the Kb on Histamine H3 receptor [3] was 31.6 nM. The affinity on Histamine H3 receptor [4], expressed as Ki, was 33 nM.
`c1ncc(CC2CCN(CCCOc3ccc(CN4CCC(N5CCCCC5)CC4)cc3)CC2)[nH]1` returned a Ki at Histamine H3 receptor [4] of 3 nM. At Cytochrome P450 2D6 [1], this compound had an IC50 greater than 30000 nM.
`c1cncc(-c2ccc(OCCCN3CCC(Cc4cnc[nH]4)CC3)cc2)c1` gave a Ki on Histamine H3 receptor [4] of 12 nM. At Cytochrome P450 2D6 [1], this compound returned an IC50 of 300 nM.
In turn, `c1nc(CC2CCN(CCCOc3ccc(CN4CCCCC4)cc3)CC2)c[nH]1` gave an AUC(0-t) at 24 h in data set [6] of 3.2 µM·h. Moreover, the Kb at Histamine H3 receptor [3] was 2.51 nM. Further, the affinity at Histamine H3 receptor [4], expressed as Ki, was 3 nM. In addition, half-maximal inhibition against Cytochrome P450 2D6 [1] (IC50) required 14000 nM.
Consider `O=C(c1ccc(OCCCN2CCC(Cc3cnc[nH]3)CC2)cc1)N1CCNCC1`, for which, on Histamine H3 receptor [3], the Kb was 15.8 nM. Moreover, at Histamine H3 receptor [4], the Ki turned out to be 23 nM. In addition, the IC50 at Cytochrome P450 2D6 [1] is greater than 20000 nM.
Compound `O=C(CCN1CCC(Cc2c[nH]cn2)CC1)Nc1ccc(CN2CCCCC2)cc1` had a Ki at Histamine H3 receptor [4] of 40 nM. For the same compound, on Cytochrome P450 2D6 [1], inhibition was half-maximal at 9000 nM (IC50).
In the same order, the values of `c1ncc(CC2CCN(CCCOc3ccc(N4CCNCC4)cc3)CC2)[nH]1` are 12 nM and greater than 20000 nM.
As to `CN(C)CCCOc1ccc(CCCN2CCC(Cc3cnc[nH]3)CC2)cc1`, the Kb on Histamine H3 receptor [3] is 50.1 nM. On Histamine H3 receptor [4], the Ki was found to be 13 nM. The IC50 against Cytochrome P450 2D6 [1] is greater than 30000 nM.
